In brackets after ≈: the same amount, converted by molar mass.
The molecules below were run on Saccharomyces cerevisiae (assay: Minimum inhibitory concentration required for in vitro inhibition of flocculation against cell wall galactose-specific yeast lectin (KbCWL)).
Type: functional

Molecule	MIC
O=C[C@H](O)[C@@H](O)[C@@H](O)[C@H](O)CO [GALACTOSE]	3500 µM (≈ 631 µg/mL)
CO[C@H]1O[C@@H](C)[C@@H](O[C@@H]2O[C@@H](CO)[C@@H](O[C@@H]3O[C@@H](CO)[C@H](O)[C@H](O)[C@@H]3O)[C@H](O)[C@@H]2O)[C@@H]2OCCOCCOc3ccccc3OCCOCCO[C@H]12	3000 µM (≈ 2260 µg/mL)
LACTOSE, ANHYDROUS	1250 µM

Further molecules by falling MIC, results first:

MIC	Molecule
2650 µM (≈ 1570 µg/mL)	CO[C@H]1O[C@@H](C)[C@@H](O[C@@H]2O[C@@H](CO)[C@H](O)C(O)[C@@H]2O)C2OCCOCCOc3ccccc3OCCOCCO[C@@H]21 (single isomer, unassigned)
1750 µM (≈ 340 µg/mL)	CO[C@@H]1O[C@H](CO)[C@H](O)[C@H](O)[C@H]1O
